Data on 3 compounds can be found in ChEMBL document CHEMBL1138204, “Low-calcemic, highly antiproliferative, 1-difluoromethyl hybrid analogs of the natural hormone 1alpha,25-dihydroxyvitamin D3: design, synthesis, and preliminary biological evaluation” (J Med Chem, 2006).

Test [1] in a line: Antiproliferative activity against murine keratinocytes. The conditions noted are these: Mus musculus, Keratinocyte; read-out: ED50 (the source's name). In kind it is functional.
The species entered for another test is Rattus norvegicus. The test can be described thus: Calcemic activity in Sprague-Dawley rat measured as urinary calcium excretion relative to calcitriol. In kind it is functional, Urine.
Another test addresses T1, Vitamin D3 receptor (Homo sapiens, UniProt P11473).
T1 sequence (P11473 whole entry): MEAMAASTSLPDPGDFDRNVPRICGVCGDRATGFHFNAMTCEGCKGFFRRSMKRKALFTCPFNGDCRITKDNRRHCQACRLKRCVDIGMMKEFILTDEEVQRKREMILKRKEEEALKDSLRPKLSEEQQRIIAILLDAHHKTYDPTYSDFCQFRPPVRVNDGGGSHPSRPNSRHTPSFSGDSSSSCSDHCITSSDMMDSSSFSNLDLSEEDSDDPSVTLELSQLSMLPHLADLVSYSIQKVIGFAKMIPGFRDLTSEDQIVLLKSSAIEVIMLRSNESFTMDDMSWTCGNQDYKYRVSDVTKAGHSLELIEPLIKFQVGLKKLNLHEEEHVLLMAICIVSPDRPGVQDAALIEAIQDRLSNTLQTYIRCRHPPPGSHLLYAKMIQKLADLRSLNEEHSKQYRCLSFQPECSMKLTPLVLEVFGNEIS
The test can be described thus: Displacement of [3H]1,25-dihydroxyvitamin D3 from human VDR by HAP assay.

Test [2] has as its target T2, Vitamin D3 receptor (Homo sapiens) (UniProt P11473).
T2 sequence (whole entry): T1 sequence (P11473 whole entry)
Description: Stabilization of human [35S]VDR against trypsin digestion by protease assay

In test [3] the target is T2, Vitamin D3 receptor (Homo sapiens). The conditions noted are these: CV-1.
Description: Activity on human VDR-mediated transcription of osteocalcin VDRE fused to thymidine kinase promoter/growth hormone reporter gene in CV1 cells

One may read the IC50 as the concentration that gives 50% inhibition. A high value points to a need for much substance.

Consider `C=C1/C(=C\C=C2/CCC[C@]3(C)C([C@H](C)CCC(F)(F)C(O)(CC)CC)=CC[C@@H]23)C[C@@H](O)C[C@@H]1C(F)F`, for which, in test [1], the EC50 stood at 2 nM. For the same compound, the Activity in the test filed under Rattus norvegicus is listed as 16%. In addition, the IC50 at Vitamin D3 receptor worked out at 50 nM. Moreover, the ED50 in test [2] stood at 4 nM; in test [3], 0.6 nM.
`C=C1/C(=C\C=C2/CCC[C@]3(C)[C@@H]([C@H](C)CCCC(C)(C)O)CC[C@@H]23)C[C@@H](O)C[C@@H]1C(F)F`: the EC50 in test [1] was determined as 150 nM. The same compound came in with an IC50 at Vitamin D3 receptor of 30 nM. The values for the ED50 in test [2] and in test [3] were 500 nM and 390 nM, respectively.
Take `C=C1/C(=C\C=C2/CCC[C@]3(C)[C@@H]([C@@H](C)OCCCC(O)(CC)CC)CC[C@@H]23)C[C@@H](O)C[C@@H]1C(F)F`: the EC50 in test [1] turned out to be 7 nM. The Activity in the test listed under Rattus norvegicus is given as 5%. Besides, the IC50 at Vitamin D3 receptor was 19.5 nM. Moreover, the ED50 in test [2] turned out to be 100 nM; in test [3] it was 3 nM.
